Measurements: patent US20230240988A1, “FLUID GEL COMPOSITIONS” (The University of Birmingham, priority 2020, published 2023)
Read-outs that look alike come from different tables or passages of the source.

What was measured:
[1] = test system: primary ovine chondrocytes; assay: PrestoBlue metabolic activity assay; type: cell-based
Experimental: All cell work was undertaken on primary ovine chondrocytes. Cells were first expanded, then seeded into wells 24 hrs prior to the application of the fluid gels. Once treatments were added, the cells were cultured for a further 3 days before testing for both metabolic activity and cell viability. In the presence of functionalised particles, suspension wells were used to promote adhesion to the gelled particles, away from the plastic. Metabolic activity assay was undertaken using a PrestoBlue™ assay kit (Invitrogen). In brief, cells were washed with Dulbecco's PBS, and 1 mL of PrestoBlue™ supplemented medium (10%) was added to each well and incubated for 4 hrs. 50 μL of supernatant from each well was transferred to one well of a 96 well plate and fluorescence was measured using a Tecan Spark (Tecan Group Ltd, UK) plate reader with excitation/emission wavelengths set at 550/620 nm.

[2] = Release assay of active agents from PEG-DA fluid gel (trans-well, UV/Vis); type: physicochemical; conditions: 3% v/v PEG-DA fluid gel (500 rpm), PBS 37° C., 5 hrs
Experimental: • Active amounts: […] • Standard concentrations of active in PBS were prepared. • Standards were pipetted into a quartz cuvette (1 mm pathlength). • […] spectroscopy was used to measure absorbance between 200 and 700 nm wavelength. • Curves were plotted and used to determine standard curves which were used to determine concentrations. • 0.5 ml PBS was added to the well of a 24 well plate. • The PBS was incubated at 37° C. to equilibrate. 0.1 ml of the fluid gel containing active was placed in a trans-well insert. • The trans-well insert was placed into a well containing PBS. • After a given time period the trans-well insert was removed and placed in a fresh well of PBS. • The release media was then removed and analysed using […] spectroscopy. Concentrations were derived from the standard curves and cumulative release plotted as a function of time.

CC(C)(O)C(=O)c1ccccc1 [Omnirad-1173, 2-hydroxy-2-methyl-1-phenylpropanone]
cell metabolic activity, individual formulation components ([1]; 3 days culture, PEG-DA not cured, 3.5% & 5%): slight reduction in cell metabolism, although not statistical

CC(C)Cc1ccc(C(C)C(=O)O)cc1 (stereo not shown) [Ibuprofen, ibuprofen]
release of active agent from fluid gel [2]: able to release

CC(C)(O)C(=O)c1ccc(OCCO)cc1 [Irgacure-2959, 1-[4-(2-Hydroxyethoxy)-phenyl]-2-hydroxy-2-methyl-1-propane-1-one]
cell metabolic activity, individual formulation components [1]: slight reduction in cell metabolism

Dextran
release of active agent from fluid gel [2]: able to release
